In patent US10676471B2, “Cycloalkyl-linked diheterocycle derivatives” (Pfizer Inc., priority 2014, dated 2020) one finds IC50 data, which are given here for 24 compounds.

The subject of this test is BT20 Cell. Description: Cancer Cell Lysate Total L-Glutamate Assay. Format: cell-based. Particulars: Homo sapiens, BT-20, 2 h, total L-glutamate in cell lysate, BT20 cells, 2 hour incubation with test compound. The method, then: Cancer Cell Lysate Total L-Glutamate Assay
Cancer cell lines (BT20, HCT116, SKOV3, HCC70, SUM149, MDA-MB-231, etc.) were plated in 96 well plates and were used for the total L-glutamate assay when the monolayer was ca. 80% confluent. The media was changed and fresh media containing L-glutamine was added to the 96 well plates, just before incubation of the cells with test compound. The test compound was diluted in 100% DMSO using a two-fold or three-fold serial dilution. Small volumes of the dilutions of test compound were added to the 96 well plates so the final DMSO concentration was 0.5% v/v in the cell culture medium. The cells were incubated at 37° C., 5% CO2, and 95% air for 2 hours. Following the 2 hour incubation, the cells were washed with water 2 times. After the last water wash, 100 μL of 50 mM Tris-HCl pH 7.4 and 0.01% Tween-20 was added to each well and the plate was frozen at −80° C. The 96 well plate was frozen and thawed a total of 3 times and then sonicated for 5 min at 4° C. in a bath sonicator. Following sonication, the 96 well plate was centrifuged for 5 min at 1000 rpm and 10 μL of the supernatant was transferred to a 384 well assay plate.
Total L-glutamate (L-glutamic acid) in the cell lysis supernatant was detected using glutamate oxidase, horseradish peroxidase and Amplex Red reagent (10-acetyl-3,7-dihydroxy phenoxazine, Invitrogen # A22177). In this assay, L-glutamate was oxidized by glutamate oxidase to produce alpha-ketoglutarate (2-oxopentane dioic acid), NH3 and H202. The H2O2 (hydrogen peroxide) was used by horseradish peroxidase (HRP) to oxidize the Amplex Red Reagent to resorufin which is a fluorescent molecule. When resorufin is excited with light with a wavelength 530-560 nm, it emits light at approximately 585 nm. For detection of total L-glutamate in 10 μL of lysate, 15 μL of an enzyme mixture was added to each well of the 384 well assay plate. The enzyme mixture consisted of 50 mM Tris-HCl pH 7.4, 0.01% Tween-20, 50 μM Amplex Red reagent (final concentration), 0.04 U/mL L-glutamate oxidase (final concentration), and 0.125 U/mL HRP (final concentration). The 384 well assay plate was incubated at room temperature for 5 min and then the fluorescence intensity of each well was measured at 585 nm using a 530-560 nm excitation wavelength in a plate based fluorimeter such as an LJL Analyst or a Tecan Infinite plate reader. Standard curves were constructed for this assay using dilutions of a L-glutamate standard. IC50 were calculated by plotting the relative fluorescent units vs log of the inhibitor concentration and fitting the data to the four parameter logistic equation.
Reference: Chapman J. and Zhou M. (1999) Microplate-based fluorometric methods for the enzymatic determination of I-glutamate: application in measuring I-glutamate in food samples. Analytica Chim Acta 402:47-52.

Some results are limits rather than exact numbers.

In general, IC50 refers to the concentration at which inhibition is half-maximal. The low end stands for higher potency, the high end for lower potency. In the case of `O=C(Cc1ccccn1)Nc1nnc(C[C@H]2CC[C@@H](c3nnc(Nc4ccccn4)s3)C2)s1` (single isomer, unassigned) [Example 86, 2-(pyridin-2-yl)-N-[5-({(cis)-3-[5-(pyridin-2-ylamino)-1,3,4-thiadiazol-2-yl]cyclopentyl}methyl)-1,3,4-thiadiazol-2-yl]acetamide], the IC50 worked out at 0.0048 µM. The value for `O=C(Cc1ccccc1)Nc1nnc(CC2CCC(c3nnc(NC(=O)Cc4ccccc4)s3)C2)s1` (racemic) [Example 9, (rac)-2-phenyl-N-(5-{[(cis)-3-{5-[(phenylacetyl)amino]-1,3,4-thiadiazol-2-yl}cyclopentyl]methyl}-1,3,4-thiadiazol-2-yl)acetamide] was 0.017 µM; that for `O=C(Cn1cccn1)Nc1nnc(C[C@H]2CC[C@@H](c3nnc(NC(=O)Cc4ccccn4)s3)C2)s1` (racemic) [Example 142, (rac)-2-(1H-pyrazol-1-yl)-N-(5-{[(cis)-3-{5-[(pyridin-2-ylacetyl)amino]-1,3,4-thiadiazol-2-yl}cyclopentyl]methyl}-1,3,4-thiadiazol-2-yl)acetamide] was 0.0132 µM. `O=C(Cc1ccccn1)Nc1ccc(C2CCC(Cc3nnc(NC(=O)Cc4ccccn4)s3)C2)nn1` (racemic) [Example 26, 2-(pyridin-2-yl)-N-{5-[(3-{6-[(pyridin-2-ylacetyl)amino]pyridazin-3-yl}cyclopentyl)methyl]-1,3,4-thiadiazol-2-yl}acetamide] had a concentration for half-maximal inhibition (IC50) of 0.0013 µM.

Take `Nc1nnc(C[C@H]2CC[C@@H](c3nnc(N)s3)C2)s1` (single isomer, unassigned) [Example 41]: the concentration for half-maximal inhibition (IC50) was over 40.4 µM. In the case of `CC(=O)Nc1nnc(C2CCC(Cc3nnc(N)s3)C2)s1` (racemic) [Example 42, (rac)-N-(5-{(cis)-3-[(5-amino-1,3,4-thiadiazol-2-yl)methyl]cyclopentyl}-1,3,4-thiadiazol-2-yl)acetamide] it was 2.37 µM; in that of `O=C(Cc1ccccn1)Nc1ccc(C[C@@H]2CC[C@H](c3nnc(NC(=O)Cc4ccccn4)s3)C2)nn1` (single isomer, unassigned) [Example 72, 2-(pyridin-2-yl)-N-{5-[(cis)-3-({6-[(pyridin-2-ylacetyl)amino]pyridazin-3-yl}methyl)cyclopentyl]-1,3,4-thiadiazol-2-yl}acetamide], 0.0009 µM; in that of `CCNc1nnc([C@H]2C[C@@H](Cc3ccc(NC(=O)Cc4ccccc4)nn3)C2)s1` (single isomer, unassigned) [Example 100, N-[6-({cis-3-[5-(ethylamino)-1,3,4-thiadiazol-2-yl]cyclobutyl}methyl)pyridazin-3-yl]-2-phenylacetamide], 0.0024 µM. The value for `CC(=O)Nc1nnc(C2CCC(C)(c3nnc(NC(C)=O)s3)C2(C)C)s1` (racemic) [Example 60, N,N′-{[-1,2,2-trimethylcyclopentane-1,3-diyl]di-1,3,4-thiadiazole-5,2-diyl}diacetamide] was 0.274 µM; that for `CC(=O)Nc1nnc([C@@H]2CC[C@H](Cc3nnc(NC(=O)Cc4ccc(C)nc4)s3)C2)s1` (single isomer, unassigned) [Example 54, N-[5-({(cis)-3-[5-(acetylamino)-1,3,4-thiadiazol-2-yl]cyclopentyl}methyl)-1,3,4-thiadiazol-2-yl]-2-(6-methylpyridin-3-yl)acetamide] was 1.28 µM; that for `COCCC(=O)Nc1nnc([C@H]2CC[C@@H](Cc3ccc(NC(=O)Cc4ccccn4)nn3)C2)s1` (single isomer, unassigned) [Example 122, 3-methoxy-N-{5-[(cis)-3-({6-[(pyridin-2-ylacetyl)amino]pyridazin-3-yl}methyl)cyclopentyl]-1,3,4-thiadiazol-2-yl}propanamide] was 0.0004 µM. Turning to `CC(=O)Nc1nnc([C@@H]2CC[C@H](Cc3nnc(NC(=O)Cc4cscn4)s3)C2)s1` (racemic) [Example 145, (rac)-N-[5-({(cis)-3-[5-(acetylamino)-1,3,4-thiadiazol-2-yl]cyclopentyl}methyl)-1,3,4-thiadiazol-2-yl]-2-(1,3-thiazol-4-yl)acetamide], the concentration for half-maximal inhibition (IC50) was 0.0071 µM.

In turn, `CCC(=O)Nc1ccc(C[C@@H]2CC[C@H](c3nnc(NC(=O)CCOC)s3)C2)nn1` (single isomer, unassigned) [Example 90, 3-methoxy-N-{5-[(cis)-3-{[6-(propanoylamino)pyridazin-3-yl]methyl}cyclopentyl]-1,3,4-thiadiazol-2-yl}propanamide] came in with a half-inhibitory concentration (IC50) of 0.0013 µM. In the case of `CC(=O)Nc1nnc(C2CC[C@H](Cc3nnc(NC(=O)Cc4ccccc4)s3)C2)s1` (single isomer, unassigned) [Example 16, N-[5-({(cis)-3-[5-(acetylamino)-1,3,4-thiadiazol-2-yl]cyclopentyl}methyl)-1,3,4-thiadiazol-2-yl]-2-phenylacetamide] it was 0.399 µM; in that of `CC(=O)Nc1nnc(C2CC[C@H](Cc3nnc(NC(=O)Cc4ccccn4)s3)C2)s1` (single isomer, unassigned) [Example 19, N-[5-({(cis)-3-[5-(acetylamino)-1,3,4-thiadiazol-2-yl]cyclopentyl}methyl)-1,3,4-thiadiazol-2-yl]-2-(pyridin-2-yl)acetamide], 1.47 µM; in that of `C[C@@H](C(=O)Nc1nnc(C[C@@H]2CC[C@H](c3nnc(NC(=O)[C@H](C)c4cccnc4)s3)C2)s1)c1cccnc1` (single isomer, unassigned) [Example 37, 2-(pyridin-3-yl)-N-(5-{[(cis)-3-(5-{[2-(pyridin-3-yl)propanoyl]amino}-1,3,4-thiadiazol-2-yl)cyclopentyl]methyl}-1,3,4-thiadiazol-2-yl)propanamide], 0.0194 µM.

As to `CC(=O)Nc1nnc([C@H]2CC[C@@H](Cc3nnc(NC(=O)Cc4cncnc4)s3)C2)s1` (single isomer, unassigned) [Example 51, N-[5-({(cis)-3-[5-(acetylamino)-1,3,4-thiadiazol-2-yl]cyclopentyl}methyl)-1,3,4-thiadiazol-2-yl]-2-(pyrimidin-5-yl)acetamide], the half-inhibitory concentration (IC50) came out at 0.0645 µM. Consider `CC(=O)Nc1nnc(CC2CCC(c3nnc(NC(=O)c4ccccc4)s3)C2)s1` (racemic) [Example 48, (rac)-N-{5-[(cis)-3-{[5-(acetylamino)-1,3,4-thiadiazol-2-yl]methyl}cyclopentyl]-1,3,4-thiadiazol-2-yl}benzamide], for which the IC50 worked out at 0.989 µM. Regarding `CC(=O)Nc1nnc([C@@H]2CC[C@H](Cc3nnc(NC(=O)c4ccccc4F)s3)C2)s1` (racemic) [Example 148, (rac)-N-[5-({(cis)-3-[5-(acetylamino)-1,3,4-thiadiazol-2-yl]cyclopentyl}methyl)-1,3,4-thiadiazol-2-yl]-2-fluorobenzamide], the IC50 was determined as 0.0126 µM.

Compound `O=C(Cc1ccccc1)Nc1ccc(C[C@H]2CC[C@@H](c3nnc(NC(=O)Cc4ccccn4)s3)C2)nn1` (single isomer, unassigned) [Example 81, 2-phenyl-N-(6-{[(cis)-3-{5-[(pyridin-2-ylacetyl)amino]-1,3,4-thiadiazol-2-yl}cyclopentyl]methyl}pyridazin-3-yl)acetamide] gave an IC50 of 0.0045 µM. In the case of `CCC(=O)Nc1ccc(C[C@H]2C[C@@H](c3nnc(NC(=O)Cc4ccccn4)s3)C2)nn1` (single isomer, unassigned) [Example 73] it was 0.0007 µM; in that of `CC(C)(C)C(=O)Nc1nnc(CC2CCC(c3nnc(NC(=O)C(C)(C)C)s3)C2)s1` (racemic) [Example 27, (rac)-N-(5-{[(cis)-3-{5-[(2,2-dimethylpropanoyl)amino]-1,3,4-thiadiazol-2-yl}cyclopentyl]methyl}-1,3,4-thiadiazol-2-yl)-2,2-dimethylpropanamide], 0.242 µM. The value for `CC(=O)Nc1nnc([C@@H]2CC[C@H](Cc3nnc(NC(=O)Cc4cn5ccccc5n4)s3)C2)s1` (racemic) [Example 149, (rac)-N-[5-({(cis)-3-[5-(acetylamino)-1,3,4-thiadiazol-2-yl]cyclopentyl}methyl)-1,3,4-thiadiazol-2-yl]-2-(imidazo[1,2-a]pyridin-2-yl)acetamide] was 0.0069 µM. In the case of `Cn1ccc(CC(=O)Nc2nnc([C@H]3CC[C@@H](Cc4ccc(NC(=O)Cc5ccccn5)nn4)C3)s2)n1` (single isomer, unassigned) [Example 126, 2-(1-methyl-1H-pyrazol-3-yl)-N-{5-[(cis)-3-({6-[(pyridin-2-ylacetyl)amino]pyridazin-3-yl}methyl)cyclopentyl]-1,3,4-thiadiazol-2-yl}acetamide] it was 0.0005 µM.
